The text below walks through data of patent US12378250B2, “Tricyclic compound as IRAK4 inhibitor” (KOREA RESEARCH INSTITUTE OF CHEMICAL TECHNOLOGY, priority 2018, dated 2025).

Series [1] relates to TMD-8 cells (B-cell lymphoma cell line). Nature of the series: Antitumor effect in SCID mice transplanted with TMD-8. The class given is in vivo. The procedure: As experimental animals, severe combined immunodeficiency (SCID) mice (C.B-17/IcrCrj-scid, female) were purchased from Charles River Laboratories Japan, Inc., and used. The mice were acclimatized for 2 weeks or more in an animal room, where temperature (22±1° C.) and humidity (50±10%) were automatically adjusted, and then used for experiments, and allowed to freely ingest water and feed. This animal experiment was performed with the approval of the Animal Care and Use Committee of the Korea Research Institute of Chemical Technology. As a TMD-8 cell line, which is a B-cell lymphoma cell line, a cell line whose subculture had been maintained in the Korea Research Institute of Chemical Technology was used.
Tumors in SCID mice were induced by transplanting TMD-8 cells at 9×10^6 cells/mouse to the right subcutaneous flank of each animal, and when the size of the transplanted tumor reached about 200 mm^3, drug administration was started ([…]). The test drug was suspended in a solution of 20% PEG400 and 3% Tween 80, and orally administered once a day for 14 days. After the test drug was administered, the diameter of the tumor (that is, a long diameter (a) and a short diameter (b) was measured using a calipers every 2 to 3 days, and according to a mathematical formula [size (mm^3) of tumor=(a×b^2)/2], the size (mm^3) of tumor was calculated, and is illustrated in FIGS. 3 and 4. As control drugs, PF-06650833 (Sigma) and ibrutinib (Medichem Express) were purchased and used, and the statistical significance of the antitumor effect of the test drug was verified using a student's T-test (SigmaStat, Jandel Scientific) program.

The test system of series [2] is TNF-α secretion, peripheral blood mononuclear cells (PBMCs). Nature of the series: Suppression of TNF-α secretion in LPS-treated PBMCs (ELISA). Type of series: cell-based. To be noted: PBMC, 100 ng/ml LPS, 24 hours, read-out: TNF-α, % inhibition degree. The gist of the method: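 PBMCs (1×10^5 cells/well for TNF-α, 2×10^5 for IFN-α) preincubated 30 min with compound, then stimulated with 100 ng/ml LPS for 24 h (TNF-α) or 500 nM ODN2216 for 72 h (IFN-α). Cytokines in supernatants quantified by sandwich ELISA with TMB, absorbance 450/570 nm.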
In general terms: ELISA stands for enzyme-linked immunosorbent assay.

Broadly, the inhibition is the change of the read-out against control, counted positive when it falls. For the compound `Fc1cncc(-c2ccc3[nH]c4ncnc(N[C@H]5CC[C@H](N6CCOCC6)CC5)c4c3c2)c1` [Compound 6aaf, 6-(5-fluoropyridin-3-yl)-N-(trans-4-morpholinocyclohexyl)-9H-pyrimido[4,5-b]indole-4-amine], the “antitumor effect (tumor size) in combination with ibrutinib” value in series [1] (administered in combination with ibrutinib, oral, once a day for 14 days) was “excellent effect”. Also, the “change in body weight of the experimental animals” value in series [1] (during the test period) is on record as “not much change”. Besides, the “antitumor effect (tumor size) compared to PF-06650833” value in series [1] (oral, once a day for 14 days, TMD-8 xenograft) is given as “did not show a significant difference in effect when compared to PF-06650833, but showed a slightly better tendency”. In series [2] (0.1 μM), the inhibition at 0.1 µM is 51%. The inhibition at 1 µM in series [2] (1 μM) was 124%.
